{
  "source": "PubChem BioAssay AID1259407",
  "about": "(Chemical Carcinogenesis Research Information System (CCRIS), 2018)",
  "test_system": "CCRIS mutagenicity, Ames/micronucleus/aberration tests",
  "assay": "CCRIS mutagenicity studies",
  "key": {"[1]": {"settings": "Test System: AMES SALMONELLA TYPHIMURIUM, Strain/Indicator: TA98, Metabolic Activation: NONE, Method: STANDARD PLATE"}, "[2]": {"settings": "Test System: AMES SALMONELLA TYPHIMURIUM, Strain/Indicator: TA98, Metabolic Activation: RAT, LIVER, S-9, AROCLOR 1254, Method: STANDARD PLATE"}, "[3]": {"settings": "Test System: AMES SALMONELLA TYPHIMURIUM, Strain/Indicator: TA100, Metabolic Activation: NONE, Method: STANDARD PLATE"}, "[4]": {"settings": "Test System: AMES SALMONELLA TYPHIMURIUM, Strain/Indicator: TA100, Metabolic Activation: RAT, LIVER, S-9, AROCLOR 1254, Method: STANDARD PLATE"}, "[5]": {"settings": "Test System: AMES SALMONELLA TYPHIMURIUM, Strain/Indicator: TA102, Metabolic Activation: NONE, Method: STANDARD PLATE"}, "[6]": {"settings": "Test System: AMES SALMONELLA TYPHIMURIUM, Strain/Indicator: TA1535, Metabolic Activation: NONE, Method: STANDARD PLATE"}, "[7]": {"settings": "Test System: AMES SALMONELLA TYPHIMURIUM, Strain/Indicator: TA1535, Metabolic Activation: RAT, LIVER, S-9, AROCLOR 1254, Method: STANDARD PLATE"}, "[8]": {"settings": "Test System: AMES SALMONELLA TYPHIMURIUM, Strain/Indicator: TA1537, Metabolic Activation: NONE, Method: STANDARD PLATE"}, "[9]": {"settings": "Test System: AMES SALMONELLA TYPHIMURIUM, Strain/Indicator: TA1537, Metabolic Activation: RAT, LIVER, S-9, AROCLOR 1254, Method: STANDARD PLATE"}, "[10]": {"settings": "Test System: AMES SALMONELLA TYPHIMURIUM, Strain/Indicator: TA1538, Metabolic Activation: NONE, Method: STANDARD PLATE"}, "[11]": {"settings": "Test System: AMES SALMONELLA TYPHIMURIUM, Strain/Indicator: TA1538, Metabolic Activation: RAT, LIVER, S-9, AROCLOR 1254, Method: STANDARD PLATE"}},
  "note": "Activity calls are given as the source filed them. The rule behind the calls is not given here.",
  "data": [
    {"smiles": "Cn1cnc2c1c(=O)[nH]c(=O)n2C", "values": [
      {"measurement": "mutagenic call", "setting": "Test System: AMES SALMONELLA TYPHIMURIUM, Strain/Indicator: TA97A, Metabolic Activation: NONE, Method: STANDARD PLATE", "value": "inactive; negative"},
      {"measurement": "mutagenic call", "setting": "Test System: AMES SALMONELLA TYPHIMURIUM, Strain/Indicator: TA97A, Metabolic Activation: RAT LIVER S-9, Method: STANDARD PLATE", "value": "inactive; negative"},
      {"measurement": "mutagenic call", "setting": "[1]", "value": "inactive; negative"},
      {"measurement": "mutagenic call", "setting": "[2]", "value": "inactive; negative"},
      {"measurement": "mutagenic call", "setting": "[3]", "value": "inactive; negative"},
      {"measurement": "mutagenic call", "setting": "Test System: AMES SALMONELLA TYPHIMURIUM, Strain/Indicator: TA100, Metabolic Activation: RAT LIVER S-9, Method: STANDARD PLATE", "value": "inactive; negative"},
      {"measurement": "mutagenic call", "setting": "[4]", "value": "inactive; negative"},
      {"measurement": "mutagenic call", "setting": "[5]", "value": "inactive; negative"},
      {"measurement": "mutagenic call", "setting": "Test System: AMES SALMONELLA TYPHIMURIUM, Strain/Indicator: TA102, Metabolic Activation: RAT LIVER S-9, Method: STANDARD PLATE", "value": "inactive; negative"},
      {"measurement": "mutagenic call", "setting": "Test System: AMES SALMONELLA TYPHIMURIUM, Strain/Indicator: TA104, Metabolic Activation: NONE, Method: STANDARD PLATE", "value": "inactive; negative"},
      {"measurement": "mutagenic call", "setting": "Test System: AMES SALMONELLA TYPHIMURIUM, Strain/Indicator: TA104, Metabolic Activation: RAT LIVER S-9, Method: STANDARD PLATE", "value": "inactive; negative"},
      {"measurement": "mutagenic call", "setting": "[6]", "value": "inactive; negative"},
      {"measurement": "mutagenic call", "setting": "[7]", "value": "inactive; negative"},
      {"measurement": "mutagenic call", "setting": "[8]", "value": "inactive; negative"},
      {"measurement": "mutagenic call", "setting": "[9]", "value": "inactive; negative"},
      {"measurement": "mutagenic call", "setting": "[10]", "value": "inactive; negative"},
      {"measurement": "mutagenic call", "setting": "[11]", "value": "inactive; negative"},
      {"measurement": "mutagenic call", "setting": "Test System: MOUSE LYMPHOMA, Strain/Indicator: L5178Y (TK+/TK-), Metabolic Activation: NONE, Method: SUSPENSION/PLATE", "value": "active; positive"},
      {"measurement": "mutagenic call", "setting": "Test System: MOUSE LYMPHOMA, Strain/Indicator: L5178Y (TK+/TK-), Metabolic Activation: RAT, LIVER, S-9, AROCLOR 1254, Method: STANDARD PLATE", "value": "active; positive"}
    ]},
    {"smiles": "Nc1ccc(-c2ccc(-c3ccc(-c4ccc(N)cc4)cc3)cc2)cc1", "values": [
      {"measurement": "mutagenic call", "setting": "[10]", "value": "inactive; negative"},
      {"measurement": "mutagenic call", "setting": "[11]", "value": "inactive; negative"}
    ]},
    {"smiles": "O=c1c(Cl)c(Cl)cnn1S(=O)(=O)c1ccc(Cl)cc1", "values": [
      {"measurement": "mutagenic call", "setting": "[1]", "value": "inactive; negative"},
      {"measurement": "mutagenic call", "setting": "[2]", "value": "inactive; negative"},
      {"measurement": "mutagenic call", "setting": "[3]", "value": "inactive; negative"},
      {"measurement": "mutagenic call", "setting": "[4]", "value": "inactive; negative"},
      {"measurement": "mutagenic call", "setting": "[6]", "value": "inactive; negative"},
      {"measurement": "mutagenic call", "setting": "[7]", "value": "inactive; negative"},
      {"measurement": "mutagenic call", "setting": "[8]", "value": "inactive; negative"},
      {"measurement": "mutagenic call", "setting": "[9]", "value": "inactive; negative"}
    ]},
    {"smiles": "NN(Cc1ccccc1)Cc1ccccc1", "values": [
      {"measurement": "mutagenic call", "setting": "[3]", "value": "inactive; negative"},
      {"measurement": "mutagenic call", "setting": "[4]", "value": "inactive; negative"},
      {"measurement": "mutagenic call", "setting": "[5]", "value": "inactive; negative"},
      {"measurement": "mutagenic call", "setting": "Test System: AMES SALMONELLA TYPHIMURIUM, Strain/Indicator: TA102, Metabolic Activation: RAT, LIVER, S-9, AROCLOR 1254, Method: STANDARD PLATE", "value": "inactive; negative"}
    ]},
    {"smiles": "Cc1ccccc1NC(=O)c1csc([N+](=O)[O-])c1", "values": [
      {"measurement": "mutagenic call", "setting": "[1]", "value": "active; positive"},
      {"measurement": "mutagenic call", "setting": "[3]", "value": "active; positive"}
    ]}
  ]
}
